# Values quoted from earlier work, collected in patent US20230165842A1, “NEW USES” (priority 2020, published 2023).
# pEC50, pIC50: −log10 of the molar value. Like-named read-outs stand apart in the source and are kept apart here.
# Legend:
# [1] = system: patients hospitalized with COVID-19; settings: With Calcifediol Treatment (n = 50)
# COVID-19 cases = settings: conclusion for the named statins
# [2] = system: adults with confirmed SARS-CoV-2 infection
# [3] = system: hospitalised Covid-19 patients
# [4] = system: dysgeusia in COVID positive patients
# [5] = system: SARS-CoV-2 Spike pseudotyped virus; settings: ACE2h HEK293T cells; Control = 1
# SARS-CoV-2 [6] = system: SARS-CoV-2
# [7] = system: COVID-19-induced pulmonary fibrosis
# SARS-CoV-2 [8] = settings: Calu-3
# SARS-CoV-2 [9] = settings: Vero E6
# SARS-CoV-2 [10] = settings: Vero E6; for pIC50: 2 h pre-treatment, 24 h
# Vero E6 cells = settings: Vero E6
# SARS-CoV-2 [11] = system: SARS-CoV-2; set-up: Reducing Viral propagation: concentration or dose not given beside the values; settings: Vero E6; MOI=0.0005
# SARS-CoV-2 [12] = system: SARS-CoV-2; remark: listed apart in the source
# OC43 [13] = settings: maximal across all concentrations
# OC43 [14] = system: OC43
# [15] = system: human coronavirus (HCoV)-229E; settings: MRC5 cells
# SARS-CoV-2 [16] = settings: treated 24 hours prior to infection; read-out: IC50 in Calu-3
# SARS-CoV-2 [17] = settings: Vero-E6; MOI 0.005
# SARS-CoV-2 [18] = settings: Vero cells; 2 h pre-treatment; vs DMSO control; p<0.0001
# SARS-CoV-2 [19] = settings: concentration dependent; data not shown
# [20] = six weeks after initiation of therapy
compound,measurement,setting,value
"C=C1CC[C@H](O)C/C1=C/C=C1\CCC[C@]2(C)[C@@H]([C@H](C)CCCC(C)(C)O)CC[C@@H]12 [Calcifediol, calcifediol]","Not requiring ICU, n (%)",[1],49 (98)
same,"Requiring ICU, n (%)",[1],1 (2)
"CC(C)c1c(C(=O)Nc2ccccc2)c(-c2ccccc2)c(-c2ccc(F)cc2)n1CC[C@@H](O)C[C@@H](O)CC(=O)O [Compound 8, atorvastatin]",mortality in patients infected with COVID-19,COVID-19 cases,may reduce mortality
"COCCCC/C(=N\OCCN)c1ccc(C(F)(F)F)cc1 [Compound 34, fluvoxamine]",incidence of subsequent hospitalization,"Covid positive patients; 0 of 65, vs 12.5% with observation",0%
same,ongoing symptoms present at day 14,"Covid positive patients; 0 of 65, vs 60% with observation alone",0%
same,serious adverse events,Covid positive patients; 50 mg twice daily for 14 days,No serious adverse events
same,Respiratory Rate,"Covid positive patients; Day 1, N = 65",17.7 ± 2.9
same,Respiratory Rate,"Covid positive patients; Day 7, N = 65",12.9 ± 1.6
same,Hospitalized within 14 days (patients),Covid positive patients; N = 65,0
same,ICU care and/or Death (patients),Covid positive patients; N = 65,0
same,Symptoms at Day 14: 1-3 (patients),Covid positive patients; N = 65,0
same,Symptoms at Day 14: 4-6 (patients),Covid positive patients; N = 65,0
same,Symptoms at Day 14: None (patients),Covid positive patients; N = 65,65
same,Symptoms at Day 14: ≥7 (patients),Covid positive patients; N = 65,0
same,adverse events leading to early discontinuation,"Covid positive patients; human, in vivo",No adverse events led to early discontinuation
same,serious adverse event (number),"[2]; fluvoxamine group, placebo 6",1
same,other adverse events (number),"[2]; fluvoxamine group, placebo 12",11
same,"Absolute difference (95% CI), any nonzero value",[2]; fluvoxamine vs placebo,−8.3%
same,"Absolute difference (95% CI), clinical deterioration",[2]; fluvoxamine vs placebo,8.7%
same,"Absolute difference (95% CI), clinical status 0 (none)",[2]; fluvoxamine vs placebo,8.3%
same,"Absolute difference (95% CI), clinical status mean",[2]; fluvoxamine vs placebo,−0.22
same,"Clinical status on 7-point scale, mean (SD)",[2]; n = 80,0
same,"Clinical status on 7-point scale: 0 (none), No. (%)",[2]; n = 80,80 (100)
same,"Clinical status on 7-point scale: Any nonzero value, No. (%)",[2]; n = 80,0
same,"Primary end point Clinical deterioration (met both criteria), No. (%)","[2]; n = 80, 100 mg 3 times daily for 15 days",0
"COc1cc(Nc2ncc(F)c(Nc3ccc4c(n3)N(COP(=O)(O)O)C(=O)C(C)(C)O4)n2)cc(OC)c1OC [Compound 35, fostamatinib]",primary endpoint of safety,"[3]; Phase II, oral twice-daily plus SOC for 14 days",met the primary endpoint of safety
same,improvement in clinical status,[3]; by day 15 and 29,superior to placebo
same,outcome of intubated patients on mechanical ventilation,[3]; two patients receiving drug,improved in seven days and were off the ventilator
same,chances of occurrence of serious adverse events,[3]; vs placebo,halved
same,number of days in the ICU,[3]; vs seven in the placebo group,three
same,deaths,[3]; vs three deaths in the placebo arm,No deaths
"CC(C)c1nc(N(C)S(C)(=O)=O)nc(-c2ccc(F)cc2)c1/C=C/[C@@H](O)C[C@@H](O)CC(=O)O [Compound 64, rosuvastatin]",mortality in patients infected with COVID-19,COVID-19 cases,may reduce mortality
"C[C@]12C=CC(=O)C=C1CC[C@H]1[C@@H]3C[C@@H](O)[C@](O)(C(=O)CO)[C@@]3(C)C[C@H](O)[C@@]12F [Compound 72, triamcinolone]",bitter identified: NO (patients),"[4]; Cases (n = 60), day 5",7
same,bitter identified: YES (patients),"[4]; Cases (n = 60), day 5",53
same,salt identified: NO (patients),"[4]; Cases (n = 60), day 5",10
same,salt identified: YES (patients),"[4]; Cases (n = 60), day 5",50
same,sour identified: NO (patients),"[4]; Cases (n = 60), day 5",10
same,sour identified: YES (patients),"[4]; Cases (n = 60), day 5",50
same,sweet identified: NO (patients),"[4]; Cases (n = 60), day 5",5
same,sweet identified: YES (patients),"[4]; Cases (n = 60), day 5",55
same,recovery of sense of smell taste,[4]; all anosmia and dysgeusia cases,recovered their sense of smell taste within a week
same,improved for bitter,"[4]; oral paste, fifth day",83.33%
same,improved for salty taste,"[4]; oral paste, fifth day",83.33%
same,improved for sour taste,"[4]; oral paste, fifth day",83.34%
same,improved for sweet,"[4]; oral paste, fifth day",91.67%
"Clc1ccc2c(c1)CCc1cccnc1C2=C1CCNCC1 [Compound 80, desloratadine]",pseudotype entry (mean),[5],0.3
"OCc1c[nH]c2ccccc12 [Compound 110, indole-3-carbinol]",SARS-CoV-2-induced CPE,SARS-CoV-2 [6]; 16.67 and 5.56 μM,not affected
same,reduced the SARS-CoV-2-induced CPE,"SARS-CoV-2 [6]; Vero E6, 50 μM, 72 h post-infection, vs DMSO",about 60%
same,virus yield reduction,SARS-CoV-2 [6]; at the various concentrations tested,2 to 4 log
"COC(=O)c1ccc2c(c1)NC(=O)/C2=C(\Nc1ccc(N(C)C(=O)CN2CCN(C)CC2)cc1)c1ccccc1 [Compound 134, nintedanib]",serum level of alanine aminotransferase (adverse event),"[7]; 300 mg/day oral, managed with reduction to 200 mg/day",became elevated
same,Ground-glass opacities of the lung (CT),[7]; FIG. 29-D,mildly attenuated without further progression of pulmonary fibrosis
same,respiratory condition and exercise tolerance,[7]; after three months of rehabilitation with drug and tapering of prednisolone,improved
same,other side effects,[7]; in vivo,No other side effects
same,vital capacity,[7]; [20],1.27 L
same,vital capacity per predicted,[7]; [20],61.7%
"COc1cc([C@@H]2c3cc4c(cc3[C@@H](O[C@@H]3O[C@@H]5CO[C@@H](C)O[C@H]5[C@H](O)[C@H]3O)[C@H]3COC(=O)[C@H]23)OCO4)cc(OC)c1O [Compound 137, etoposide]","PaO2/FiO2 ratio improved, average","COVID-19 ARDS patients; 11 patients, 50-150 mg/m^2",195%
same,patients fully recovered and discharged home,COVID-19 ARDS patients; of 11 patients,Nine
same,patients needed mechanical ventilation,COVID-19 ARDS patients; of 11 patients,Three
same,patients died,"COVID-19 ARDS patients; of 11 patients, thrombotic complications",Two
"C[C@H]1[C@H](OC(=O)CCC(=O)O)O[C@@H]2O[C@@]3(C)CC[C@H]4[C@H](C)CC[C@@H]1[C@@]24OO3 [Compound 145, artesunate]",pIC50,SARS-CoV-2 [8],5.75
same,Selectivity Index (SI),SARS-CoV-2 [8],>56.82
same,CC50,Vero E6,> 100 µM
same,pIC50,SARS-CoV-2 [9],4.28
same,Selectivity Index (SI),SARS-CoV-2 [9],>1.885
same,CC50,Calu-3,> 100 µM
"O=C1NCN(c2ccccc2)C12CCN(CCCC(c1ccc(F)cc1)c1ccc(F)cc1)CC2 [Compound 158, fluspirilene]",Selectivity Index (SI),SARS-CoV-2 [10]; MOI 0.004,9.61
same,pIC50,SARS-CoV-2 [10]; MOI 0.004,5.20
same,Selectivity Index (SI),SARS-CoV-2 [10]; MOI 0.01,>5.71
same,pIC50,SARS-CoV-2 [10]; MOI 0.01,5.27
same,CC50,Vero E6 cells; listed as MOI 0.004,30.3 µM
same,CC50,Vero E6 cells; listed as MOI 0.01,30.3 µM
"NC1(c2ccc(-c3nc4ccn5c(=O)[nH]nc5c4cc3-c3ccccc3)cc2)CCC1 [Compound 173, mk-2206]",pIC50,SARS-CoV-2 [11],7.05
same,Reducing Viral propagation,SARS-CoV-2 [11],88%
"CS(=O)(=O)CCNCc1ccc(-c2ccc3ncnc(Nc4ccc(OCc5cccc(F)c5)c(Cl)c4)c3c2)o1 [Compound 187, lapatinib]",SARS-CoV-2 viral replication,SARS-CoV-2 [12],strongly inhibited
same,toxicity,"SARS-CoV-2 [12]; at doses readily achievable in human tissues, data not shown",without any toxicity
same,inhibited SARS-CoV-2 replication,SARS-CoV-2 [12]; data not shown,"over 50,000 fold"
same,Max % Inhibition of Viral Killing,OC43 [13],63.99%
same,OC43 viral replication,OC43 [14],strongly inhibited
"CCN(CC)CCCC(C)Nc1ccnc2cc(Cl)ccc12 (centres unmarked) [Reference Compound 1, chloroquine]",pIC50,SARS-CoV-2 [10]; MOI 0.004,4.38
same,pIC50,SARS-CoV-2 [10]; MOI 0.01,4.33
same,pEC50,[15],5.30
same,reduction of the viral titer,[15],60%
same,pIC50,SARS-CoV-2 [16],4.16
same,pEC50,SARS-CoV-2 [17],5.87
"NCCCCNCCCN [Reference Compound 2, spermidine]",pIC50,SARS-CoV-2 [11],3.83
same,Reducing Viral propagation,SARS-CoV-2 [11],85%
"O=C(Nc1ccc([N+](=O)[O-])cc1Cl)c1cc(Cl)ccc1O [Reference Compound 3, niclosamide]",pIC50,SARS-CoV-2 [11],4.77
same,Reducing Viral propagation,SARS-CoV-2 [11],>99%
"COc1ccc2nc3cc(Cl)ccc3c(Nc3cc(CN4CCCC4)c(O)c(CN4CCCC4)c3)c2n1 [Reference Compound 4, pyronaridine]",pIC50,SARS-CoV-2 [8],5.19
same,Selectivity Index (SI),SARS-CoV-2 [8],6.718
same,CC50,Vero E6; Vero E6,37.1 µM
same,pIC50,SARS-CoV-2 [9],5.96
same,Selectivity Index (SI),SARS-CoV-2 [9],34.22
same,CC50,Calu-3; Calu-3,43.1 µM
"CCN(CCO)CCCC(C)Nc1ccnc2cc(Cl)ccc12 (centres unmarked) [Reference Compound 5, hydroxychloroquine]",pIC50,SARS-CoV-2 [8],3.99
same,Selectivity Index (SI),SARS-CoV-2 [8],>0.972
same,CC50,Vero E6; Vero E6,> 100 µM
same,decrease in viral load,SARS-CoV-2 [18],26.9 fold
same,pIC50,SARS-CoV-2 [9],5.97
same,Selectivity Index (SI),SARS-CoV-2 [9],>93.55
same,CC50,Calu-3; Calu-3,> 100 µM
"CC(=O)OCOC(=O)CN(CC(=O)OCOC(C)=O)c1ccccc1OCCOc1ccccc1N(CC(=O)OCOC(C)=O)CC(=O)OCOC(C)=O [compound 15, BAPTA-AM]",inhibition of SARS-CoV-2 replication,SARS-CoV-2 [19],significantly inhibit
NCCOB(c1ccccc1)c1ccccc1 [compound 16],inhibition of SARS-CoV-2 replication,SARS-CoV-2 [19],significantly inhibit
maraviroc [Compound 170],decrease in viral load,SARS-CoV-2 [18],30.7 fold
saracatinib [Compound 112],SARS-CoV-2 viral replication,SARS-CoV-2 [12],inhibition also observed
same,Max % Inhibition of Viral Killing,OC43 [13],22.48%
same,OC43 viral replication,OC43 [14],inhibition also observed
